According to patent publication US6936585B2, “Corticotropin releasing factor 2 receptor agonists” (priority 2002, dated 2005):
Read-outs that look alike come from different tables or passages of the source. Peptide text beside a SMILES is read from it.

How the values were obtained:
CRF2R = target: T1, CRF2R (Homo sapiens, UniProt Q13324); test: CRF2R agonist activation (EC50 / Emax), called comparative CRF binding; type: cell-based; details: for Emax: read-out: CRF2R Emax
T1 sequence (Q13324 1-411): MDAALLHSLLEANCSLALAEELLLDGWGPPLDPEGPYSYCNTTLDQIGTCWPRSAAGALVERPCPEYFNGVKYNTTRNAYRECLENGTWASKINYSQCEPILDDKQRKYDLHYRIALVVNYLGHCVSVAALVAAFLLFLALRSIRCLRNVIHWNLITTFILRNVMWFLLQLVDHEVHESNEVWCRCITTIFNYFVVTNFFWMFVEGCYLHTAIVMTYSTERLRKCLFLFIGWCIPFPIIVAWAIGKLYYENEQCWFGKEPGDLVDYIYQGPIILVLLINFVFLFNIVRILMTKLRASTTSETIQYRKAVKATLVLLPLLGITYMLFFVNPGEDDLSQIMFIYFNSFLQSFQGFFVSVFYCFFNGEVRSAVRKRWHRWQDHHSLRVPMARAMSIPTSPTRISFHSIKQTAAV
Method in brief: (§1)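 Read-out is Gαs-driven cAMP induction, quantified directly in lysates or through CRE-reporter gene expression, after treating CRF1R- or CRF2R-expressing cells with peptide. Vehicle-treated cells serve as the comparison.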

CRF1R = target: T2, CRF1R (Homo sapiens, UniProt P34998); test: CRF1R agonist activation (EC50 / Emax), called comparative CRF binding; type: cell-based; details: for Emax: read-out: CRF1R Emax
T2 sequence (P34998 24-415): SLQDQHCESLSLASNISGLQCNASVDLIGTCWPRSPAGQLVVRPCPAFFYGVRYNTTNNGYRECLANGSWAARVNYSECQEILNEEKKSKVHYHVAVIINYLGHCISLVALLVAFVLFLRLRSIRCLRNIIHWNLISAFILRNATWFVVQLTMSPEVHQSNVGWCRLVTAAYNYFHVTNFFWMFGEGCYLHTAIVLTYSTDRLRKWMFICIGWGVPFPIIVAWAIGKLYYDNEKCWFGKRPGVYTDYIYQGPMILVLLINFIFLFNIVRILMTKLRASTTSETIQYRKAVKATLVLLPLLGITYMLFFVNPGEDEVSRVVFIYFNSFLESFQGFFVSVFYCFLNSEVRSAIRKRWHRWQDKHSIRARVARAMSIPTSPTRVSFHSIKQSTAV
Method in brief: as §1

Row | SMILES | EC50 (CRF2R; read-out: CRF2R EC50) [nM] | Emax (CRF2R) [%] | EC50 (CRF1R; read-out: CRF1R EC50) [nM] | Emax (CRF1R) [%] | EC50 (CRF2R) [nM] | EC50 (CRF1R) [nM]
1 | CC[C@H](C)[C@H](NC(=O)[C@H](C)NC(=O)[C@H](CC(N)=O)NC(=O)[C@H](CCC(N)=O)NC(=O)[C@H](CCC(=O)O)NC(=O)[C@H](C)NC(=O)[C@H](CCCNC(=N)N)NC(=O)[C@H](CCC(=O)O)NC(=O)[C@H](CCCNC(=N)N)NC(=O)[C@H](CCC(N)=O)NC(=O)[C@H](CO)NC(=O)[C@H](CCC(N)=O)NC(=O)[C@@H](NC(=O)[C@H](CCCNC(=N)N)NC(=O)[C@H](C)NC(=O)[C@H](CC(C)C)NC(=O)[C@H](CCC(=O)O)NC(=O)[C@H](CC(C)C)NC(=O)[C@H](CC(C)C)NC(=O)[C@@H](NC(=O)[C@H](CCCNC(=N)N)NC(=O)[C@H](CC(C)C)NC(=O)[C@H](CC(C)C)NC(=O)[C@H](CCC(N)=O)NC(=O)[C@H](Cc1ccccc1)NC(=O)[C@@H]1CCCN1C(=O)[C@H](CC(C)C)NC(=O)[C@H](CC(=O)O)NC(=O)[C@@H](NC(=O)[C@H](CO)NC(=O)[C@H](CC(C)C)NC(=O)[C@H](CO)NC(=O)[C@@H]1CCCN1C(=O)[C@H](CC(N)=O)NC(=O)[C@@H](N)CC(=O)O)[C@@H](C)CC)[C@@H](C)O)[C@@H](C)O)C(=O)N[C@H](C(=O)N[C@@H](Cc1ccccc1)C(=O)N[C@@H](C)C(=O)N[C@@H](CO)C(=O)N[C@H](C(N)=O)C(C)C)[C@@H](C)CC [compound 182] (H-DNPSLSIDLPFQLLRTLLELARTQSQRERAEQNAIIFASV-NH2; N-terminus assumed) | 7.21 | 91.4 | 409 | 89.7 |  | 
2 | CC[C@H](C)[C@H](N)C(=O)N[C@H](C(=O)N[C@@H](CC(C)C)C(=O)N[C@@H](CO)C(=O)N[C@@H](CC(C)C)C(=O)N[C@@H](CC(=O)O)C(=O)N[C@H](C(=O)N1CCC[C@H]1C(=O)N[C@H](C(=O)NCC(=O)N[C@@H](CC(C)C)C(=O)N[C@@H](CC(C)C)C(=O)N[C@@H](CCC(N)=O)C(=O)N[C@@H](CCC(=O)O)C(=O)N[C@H](C(=O)N[C@@H](CC(C)C)C(=O)N[C@@H](CCC(=O)O)C(=O)N[C@@H](CCSC)C(=O)N[C@@H](C)C(=O)N[C@@H](CCCNC(=N)N)C(=O)N[C@@H](C)C(=O)N[C@@H](CCC(=O)O)C(=O)N[C@@H](CCC(N)=O)C(=O)N[C@@H](CC(C)C)C(=O)N[C@@H](C)C(=O)N[C@@H](CCC(N)=O)C(=O)N[C@@H](CCC(N)=O)C(=O)N[C@@H](C)C(=O)N[C@@H](Cc1c[nH]cn1)C(=O)N[C@@H](CO)C(=O)N[C@@H](CC(N)=O)C(=O)N[C@@H](CCCNC(=N)N)C(=O)N[C@@H](CCCCN)C(=O)N[C@@H](CC(C)C)C(=O)N[C@@H](CCSC)C(=O)N[C@@H](CCC(=O)O)C(=O)N[C@H](C(=O)N[C@H](C(N)=O)[C@@H](C)CC)[C@@H](C)CC)C(C)C)[C@@H](C)CC)C(C)C)C(C)C [compound 165] (H-IVLSLDVPIGLLQEVLEMARAEQLAQQAHSNRKLMEII-NH2) |  | 75 |  | 19 |  | 
3 | CC[C@H](C)[C@H](NC(=O)[C@H](CCCNC(=N)N)NC(=O)[C@H](C)NC(=O)[C@H](CC(N)=O)NC(=O)[C@H](CCC(N)=O)NC(=O)[C@H](CCC(=O)O)NC(=O)[C@H](C)NC(=O)[C@H](CCCNC(=N)N)NC(=O)[C@H](CCC(=O)O)NC(=O)[C@H](CCCNC(=N)N)NC(=O)[C@H](CCC(N)=O)NC(=O)[C@H](CO)NC(=O)[C@H](CCC(N)=O)NC(=O)[C@@H](NC(=O)[C@H](CCCCN)NC(=O)[C@H](CCC(=O)O)NC(=O)[C@H](CC(C)C)NC(=O)[C@H](CCC(=O)O)NC(=O)[C@H](CC(C)C)NC(=O)[C@H](CC(C)C)NC(=O)[C@@H](NC(=O)[C@H](CCCNC(=N)N)NC(=O)[C@H](CC(C)C)NC(=O)[C@H](CC(C)C)NC(=O)[C@H](Cc1ccccc1)NC(=O)[C@H](CC(C)C)NC(=O)[C@@H]1CCCN1C(=O)[C@@H](NC(=O)[C@H](CC(=O)O)NC(=O)[C@@H](NC(=O)[C@H](CO)NC(=O)[C@H](CC(C)C)NC(=O)[C@H](CO)NC(=O)[C@@H]1CCCN1C(=O)[C@H](CC(N)=O)NC(=O)[C@@H](N)CC(=O)O)[C@@H](C)CC)C(C)C)[C@@H](C)O)[C@@H](C)O)C(=O)N[C@@H](Cc1ccccc1)C(=O)N[C@@H](C)C(=O)N[C@@H](CCCNC(=N)N)C(=O)N[C@H](C(N)=O)C(C)C [compound 385] (H-DNPSLSIDVPLFLLRTLLELEKTQSQRERAEQNARIFARV-NH2; N-terminus assumed) |  | 100 |  | 46 | 10.3 | ≥ 1000
